Test results from PubChem BioAssay AID743107 (Vanderbilt Specialized Chemistry Center, 2013).
The source made the active and inactive calls.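 Rule for the calls: active = compound leaving under 60% of the human M5 receptor calcium signal; inactive = the rest.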

Molecular target: Muscarinic acetylcholine receptor M5 (Homo sapiens) (UniProt P08912)
Test: inhibitors of ACh-evoked M5 calcium signal – cell-based, single concentration, CHO-K1 hM5, ACh EC80 (AID 743107)
Conditions: CHO-K1 hM5, calcium flux, at 10 µM, active compounds read low

Chain of Muscarinic acetylcholine receptor M5 (Homo sapiens) (P08912 whole entry, looked up): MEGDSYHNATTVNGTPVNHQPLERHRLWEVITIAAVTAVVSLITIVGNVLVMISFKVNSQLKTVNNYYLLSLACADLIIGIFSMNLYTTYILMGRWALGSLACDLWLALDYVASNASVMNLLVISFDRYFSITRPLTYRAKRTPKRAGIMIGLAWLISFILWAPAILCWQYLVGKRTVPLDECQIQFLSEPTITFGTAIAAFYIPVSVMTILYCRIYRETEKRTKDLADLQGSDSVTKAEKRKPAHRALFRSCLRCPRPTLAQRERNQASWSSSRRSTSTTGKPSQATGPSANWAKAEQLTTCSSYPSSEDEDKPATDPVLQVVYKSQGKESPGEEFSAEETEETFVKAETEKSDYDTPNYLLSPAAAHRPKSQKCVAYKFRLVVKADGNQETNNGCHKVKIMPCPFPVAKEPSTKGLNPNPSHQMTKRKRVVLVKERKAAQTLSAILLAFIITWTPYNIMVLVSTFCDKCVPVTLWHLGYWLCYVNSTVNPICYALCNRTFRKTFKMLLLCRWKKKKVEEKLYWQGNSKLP

**Q.** How did the activity remaining turn out when `CC(c1ccccn1)N(C)C(=O)c1cc(CNC(=O)c2ccccc2)on1` (stereo not given) was run?
**A.** 76.7% (inactive)

**Q.** With `CC(=O)c1cccc(N(Cc2cc(C(=O)N(C)C(C)c3ccccn3)no2)C(=O)c2ccc(F)cc2)c1` (stereo not given) as the compound, how does the activity remaining read?
**A.** 71.8% (inactive)

**Q.** For `CC(c1ccccn1)N(C)C(=O)c1cc(COc2ccc(F)c(F)c2)on1` (stereo not given), which activity remaining is on record?
**A.** 85.3% (inactive)

**Q.** For `CC(=O)c1cccc(N(Cc2cc(C(=O)N(C)C(C)c3ccccn3)no2)S(=O)(=O)c2ccccc2[N+](=O)[O-])c1` (stereo not given), which activity remaining is on record?
**A.** 60.6% (inactive)

**Q.** Which activity remaining does the source give for `CC(=O)c1cccc(OCc2cc(C(=O)Nc3ccccn3)no2)c1` here?
**A.** 77.1% (inactive)

**Q.** For `CC(c1ccccn1)N(C)C(=O)c1cc(COc2ccc3c(c2)CCCC3)on1` (stereo not given), which activity remaining is on record?
**A.** 79% (inactive)

**Q.** With `CC(=O)NCc1cc(C(=O)N(C)C(C)c2ccccn2)no1` (stereo not given) as the compound, how does the activity remaining read?
**A.** 76.8% (inactive)

**Q.** `Cc1ccc(C(=O)NCc2cc(C(=O)N(C)C(C)c3ccccn3)no2)cc1` (stereo not given) was tested. Which activity remaining did it give?
**A.** 75.1% (inactive)

**Q.** With `CC(=O)c1cccc(N(Cc2cc(C(=O)N(C)C(C)c3ccccn3)no2)C(=O)c2ccccc2C)c1` (stereo not given) as the compound, how does the activity remaining read?
**A.** 67.2% (inactive)

**Q.** How did the activity remaining turn out when `COc1ccccc1C(=O)NCc1cc(C(=O)N(C)C(C)c2ccccn2)no1` (stereo not given) was run?
**A.** 76.4% (inactive)

**Q.** `Cc1ccccc1OCc1cc(C(=O)N(C)C(C)c2ccccn2)no1` (stereo not given) was tested. Which activity remaining did it give?
**A.** 79.9% (inactive)

**Q.** For `CC(c1ccccn1)N(C)C(=O)c1cc(CNC(=O)C(C)(C)C)on1` (stereo not given), which activity remaining is on record?
**A.** 77.8% (inactive)

**Q.** With `Cc1ccc(OCc2cc(C(=O)N(C)C(C)c3ccccn3)no2)cc1` (stereo not given) as the compound, how does the activity remaining read?
**A.** 78.5% (inactive)

**Q.** How did the activity remaining turn out when `CC(=O)c1cccc(N(Cc2cc(C(=O)N(C)C(C)c3ccccn3)no2)C(=O)c2ccc(C)cc2)c1` (stereo not given) was run?
**A.** 63.5% (inactive)

**Q.** How did the activity remaining turn out when `CC(=O)c1cccc(N(Cc2cc(C(=O)N(C)C(C)c3ccccn3)no2)C(=O)c2ccccc2)c1` (stereo not given) was run?
**A.** 69.6% (inactive)

**Q.** With `CC(c1ccccn1)N(C)C(=O)c1cc(COc2ccc(F)cc2)on1` (stereo not given) as the compound, how does the activity remaining read?
**A.** 82.2% (inactive)

**Q.** How did the activity remaining turn out when `CC(c1ccccn1)N(C)C(=O)c1cc(COc2ccccc2Cl)on1` (stereo not given) was run?
**A.** 77.2% (inactive)

**Q.** With `CCOc1cccc(OCc2cc(C(=O)N(C)C(C)c3ccccn3)no2)c1` (stereo not given) as the compound, how does the activity remaining read?
**A.** 79.2% (inactive)

**Q.** How did the activity remaining turn out when `CC(=O)c1ccccc1OCc1cc(C(=O)N(C)C(C)c2ccccn2)no1` (stereo not given) was run?
**A.** 80.4% (inactive)

**Q.** With `CC(=O)c1cccc(OCc2cc(C(=O)N3CCc4cccnc4C3)no2)c1` as the compound, how does the activity remaining read?
**A.** 86.8% (inactive)

**Q.** With `CC(c1ccccn1)N(C)C(=O)c1cc(COc2cccc(Oc3ccccc3)c2)on1` (stereo not given) as the compound, how does the activity remaining read?
**A.** 83.1% (inactive)

**Q.** Which activity remaining does the source give for `COc1ccccc1C(=O)N(Cc1cc(C(=O)N(C)C(C)c2ccccn2)no1)c1cccc(C(C)=O)c1` (stereo not given) here?
**A.** 73.8% (inactive)

**Q.** For `CC(c1ccccn1)N(C)C(=O)c1cc(COc2cccc(F)c2)on1` (stereo not given), which activity remaining is on record?
**A.** 77.1% (inactive)

**Q.** `CC(=O)c1cccc(OCc2cc(C(=O)N(C)C(C)c3ccccc3)no2)c1` (stereo not given) was tested. Which activity remaining did it give?
**A.** 52.9%

**Q.** Which activity remaining does the source give for `CC(c1ccccn1)N(C)C(=O)c1cc(COc2ccccc2F)on1` (stereo not given) here?
**A.** 83.7% (inactive)

**Q.** How did the activity remaining turn out when `CC(=O)c1cccc(OCc2cc(C(=O)N(C)Cc3ccccc3)no2)c1` was run?
**A.** 76.6% (inactive)

**Q.** Which activity remaining does the source give for `CC(c1ccccn1)N(C)C(=O)c1cc(COc2cccc([N+](=O)[O-])c2)on1` (stereo not given) here?
**A.** 73.7% (inactive)

**Q.** `CC(c1ccccn1)N(C)C(=O)c1cc(COc2ccc(Cl)cc2)on1` (stereo not given) was tested. Which activity remaining did it give?
**A.** 84.2% (inactive)

**Q.** How did the activity remaining turn out when `COc1cccc(OCc2cc(C(=O)N(C)C(C)c3ccccn3)no2)c1` (stereo not given) was run?
**A.** 79.8% (inactive)

**Q.** With `CC(=O)c1cccc(N(Cc2cc(C(=O)N(C)C(C)c3ccccn3)no2)C(=O)C2CCCC2)c1` (stereo not given) as the compound, how does the activity remaining read?
**A.** 66% (inactive)

**Q.** With `COC(=O)c1cccc(OCc2cc(C(=O)N(C)C(C)c3ccccn3)no2)c1` (stereo not given) as the compound, how does the activity remaining read?
**A.** 67.3% (inactive)

**Q.** Which activity remaining does the source give for `CC(=O)c1cccc(OCc2cc(C(=O)N(C)C(C)c3cccnc3)no2)c1` (stereo not given) here?
**A.** 78.2% (inactive)

**Q.** With `CC(c1ccccn1)N(C)C(=O)c1cc(COc2cccc(C=O)c2)on1` (stereo not given) as the compound, how does the activity remaining read?
**A.** 83.1% (inactive)

**Q.** Which activity remaining does the source give for `CC(=O)c1cccc(N(Cc2cc(C(=O)N(C)C(C)c3ccccn3)no2)C(=O)C(C)(C)C)c1` (stereo not given) here?
**A.** 73.9% (inactive)

**Q.** For `CC(c1ccccn1)N(C)C(=O)c1cc(COc2cccc(C(F)(F)F)c2)on1` (stereo not given), which activity remaining is on record?
**A.** 84.1% (inactive)

**Q.** How did the activity remaining turn out when `CC(c1ccccn1)N(C)C(=O)c1cc(CNC(=O)c2cccc(F)c2)on1` (stereo not given) was run?
**A.** 78.2% (inactive)

**Q.** Which activity remaining does the source give for `CC(Cl)c1cccc(OCc2cc(C(=O)N(C)C(C)c3ccccn3)no2)c1` (stereo not given) here?
**A.** 76.1% (inactive)

**Q.** `CCN(C(=O)c1cc(COc2cccc(C(C)=O)c2)on1)C(C)c1ccccn1` (stereo not given) was tested. Which activity remaining did it give?
**A.** 14.2%

**Q.** `CC(c1ccccn1)N(C)C(=O)c1cc(CNC(=O)c2ccc(F)cc2)on1` (stereo not given) was tested. Which activity remaining did it give?
**A.** 77% (inactive)

**Q.** For `CC(=O)c1cccc(N(Cc2cc(C(=O)N(C)C(C)c3ccccn3)no2)C(C)=O)c1` (stereo not given), which activity remaining is on record?
**A.** 70.4% (inactive)

**Q.** How did the activity remaining turn out when `CC(=O)c1cccc(OCc2cc(C(=O)NCc3ccccn3)no2)c1` was run?
**A.** 88.7% (inactive)

**Q.** `CC(c1ccccn1)N(C)C(=O)c1cc(COc2cccc(CO)c2)on1` (stereo not given) was tested. Which activity remaining did it give?
**A.** 75.5% (inactive)

**Q.** `CC(c1ccccn1)N(C)C(=O)c1cc(CNC(=O)C2CCCC2)on1` (stereo not given) was tested. Which activity remaining did it give?
**A.** 77.7% (inactive)

**Q.** With `CC(=O)c1cccc(NCc2cc(C(=O)N(C)C(C)c3ccccn3)no2)c1` (stereo not given) as the compound, how does the activity remaining read?
**A.** 21.4%

**Q.** How did the activity remaining turn out when `CC(O)c1cccc(OCc2cc(C(=O)N(C)C(C)c3ccccn3)no2)c1` (stereo not given) was run?
**A.** 69.3% (inactive)

**Q.** `Cc1cccc(C(=O)NCc2cc(C(=O)N(C)C(C)c3ccccn3)no2)c1` (stereo not given) was tested. Which activity remaining did it give?
**A.** 71.5% (inactive)

**Q.** For `CC(c1ccccn1)N(C)C(=O)c1cc(CNC(=O)c2ccccc2F)on1` (stereo not given), which activity remaining is on record?
**A.** 71.8% (inactive)

**Q.** For `CC(=O)c1cccc(N(Cc2cc(C(=O)N(C)C(C)c3ccccn3)no2)C(=O)c2cccc(C)c2)c1` (stereo not given), which activity remaining is on record?
**A.** 65.5% (inactive)

**Q.** How did the activity remaining turn out when `CC(=O)c1cccc(N(Cc2cc(C(=O)N(C)C(C)c3ccccn3)no2)C(=O)c2cccc(F)c2)c1` (stereo not given) was run?
**A.** 70% (inactive)

**Q.** For `CC(c1ccccn1)N(C)C(=O)c1cc(CNS(C)(=O)=O)on1` (stereo not given), which activity remaining is on record?
**A.** 80.4% (inactive)

**Q.** How did the activity remaining turn out when `CC(=O)c1cccc(OCc2cc(C(=O)N(C)C(C)c3ccncc3)no2)c1` (stereo not given) was run?
**A.** 80.9% (inactive)

**Q.** Which activity remaining does the source give for `CC(=O)c1cccc(OCc2cc(C(=O)NC(c3ccccn3)C(F)(F)F)no2)c1` (stereo not given) here?
**A.** 72.6% (inactive)

**Q.** With `CC(=O)c1cccc(N(Cc2cc(C(=O)N(C)C(C)c3ccccn3)no2)C(=O)c2ccccc2F)c1` (stereo not given) as the compound, how does the activity remaining read?
**A.** 74.8% (inactive)

**Q.** With `CC(=O)c1cccc(OCc2cc(C(=O)N(C)c3ccccn3)no2)c1` as the compound, how does the activity remaining read?
**A.** 77.8% (inactive)

**Q.** For `COc1ccc(OCc2cc(C(=O)N(C)C(C)c3ccccn3)no2)cc1` (stereo not given), which activity remaining is on record?
**A.** 82.8% (inactive)

**Q.** How did the activity remaining turn out when `Cc1ccccc1C(=O)NCc1cc(C(=O)N(C)C(C)c2ccccn2)no1` (stereo not given) was run?
**A.** 73.8% (inactive)

**Q.** For `CC(=O)c1ccc(OCc2cc(C(=O)N(C)C(C)c3ccccn3)no2)cc1` (stereo not given), which activity remaining is on record?
**A.** 75% (inactive)

**Q.** With `CC(=O)c1cccc(OCc2cc(C(=O)N(C)c3cccc4cccnc34)no2)c1` as the compound, how does the activity remaining read?
**A.** 74.2% (inactive)

**Q.** How did the activity remaining turn out when `CC(c1ccccn1)N(C)C(=O)c1cc(COc2cccc(Br)c2)on1` (stereo not given) was run?
**A.** 71.7% (inactive)

**Q.** For `CC(=O)c1cccc(OCc2cc(C(=O)N3CCc4ccccc4C3C)no2)c1` (stereo not given), which activity remaining is on record?
**A.** 81.5% (inactive)
